Results reported in patent US10590143B2, “Herbicidally active (alkynyl-phenyl)-substituted cyclic dione compounds and derivatives thereof” (Syngenta Limited, priority 2013, dated 2020).
Where two headings read alike, the source gives them in different places.

Assays:
Format in all cases: in vivo
Avena fatua (AVEFA) = test: Biological Example 2 glasshouse assay for herbicidal activity; settings: post-emergence, 360 h, 14 or 15 DAA, 0.2% v/v X-77, read-out: percentage phytotoxicity AVEFA
Procedure: (§1) Seeds of a variety of monocotyledonous and dicotyledonous test plants are sown in standard soil in pots. The plants are cultivated for one day (for pre-emergence) or for about 12 days (range=10-13 days) (for post-emergence) under controlled conditions in a glasshouse (warm climate species at 24/18° C., cool climate species at 20/16° C., both at day/night; 16 hours light; 65% humidity).
(§2) An “instant formulation”, known as the “IF50”, containing 50 g/litre (i.e. 5% w/v) of the “technical” (i.e. unformulated) active ingredient is prepared by dissolving the active ingredient in a mixture of organic solvents and emulsifier, details of which are provided in the Table below. This IF50 is then mixed with a small, variable amount of acetone to aid dissolution, before addition of a 0.2% v/v aqueous solution of the adjuvant X-77 (which is a mixture of alkyl aryl polyoxyethylene glycols and free fatty acids in isopropanol, CAS Registry number 11097-66-8), as the aqueous diluent, to form an aqueous spray solution which contains a predetermined concentration of the active ingredient (which varies depending on the application rate of the active ingredient to the plants) and 0.2% v/v of the adjuvant X-77. This aqueous spray solution is then sprayed onto the plants, after one day's cultivation (for pre-emergence) or after about 12 days' cultivation (for post-emergence).
(§3) The test plants are then grown on, in a glasshouse (greenhouse) under controlled conditions (at either 24/18° C. or 20/16° C. (day/night) as mentioned above; 16 hours light; 65% humidity) and are watered twice daily. Either 14 or 15 days after application of the herbicide (14 or 15 DAA) (for post-emergence), or 20 days after application of the herbicide (20 DAA) (for pre-emergence), the test plants are evaluated visually, and an assessed percentage phytotoxicity score is given for each herbicidal application on each plant species (where 100%=total damage to plant; 0%=no damage to plant).
(§4) Some of the typical test plants are as follows: • Cool climate crop plants: Triticum aestivum (TRZAW, winter wheat), Brassica napus (BRSNN, rape, also called oilseed rape or rapeseed), Beta vulgaris (BEAVA, sugarbeet). • Warm climate crop plants: Glycine max (GLXMA, soybean). • Cool climate (“cool season”) grassy monocotyledonous weeds: Alopecurus myosuroides (ALOMY), Avena fatua (AVEFA), Lolium perenne (LOLPE), Poa annua (POAAN), Bromus tectorum (BROTE). • Warm climate (“warm season”) grassy monocotyledonous weeds: Setaria faberi (SETFA), SORVU (Sorghum bicolor (L.) Moench ssp. Bicolor, or Sorghum vulgare Pers.), Digitaria sanguinalis (DIGSA), Echinochloa crus-galli (ECHCG), Brachiaria plantaginea (BRAPL); Zea mays (ZEAMX, corn, maize, e.g. volunteer corn).

Setaria faberi (SETFA) [1] = test: as above; settings: post-emergence, 360 h, 14 or 15 DAA, 0.2% v/v X-77, read-out: percentage phytotoxicity SETFA
Procedure: as §1, §2, §3, §4

[2] = test system: Triticum aestivum (TRZAW, winter wheat); test: as above; settings: post-emergence, 360 h, 14 or 15 DAA, 0.2% v/v X-77, read-out: percentage phytotoxicity TRZAW
Procedure: as §1, §2, §3, §4

[3] = test system: Abutilon theophrasti (ABUTH); test: Biological Example 1 glasshouse assay for herbicidal activity; settings: 312 h, 13 days after application, read-out: percentage phytotoxicity ABUTH
Procedure, shortened: (§5)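 Each species was generally tested as a single plant per application rate and timing, on sand or sandy loam soil. Spraying took place 1 or 8 days after sowing. Phytotoxicity from 0 to 100% was judged by eye at day 13 under controlled glasshouse conditions.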

[4] = test system: Alopecurus myosuroides (ALOMY); test: as above; settings: 312 h, 13 days after application, read-out: percentage phytotoxicity ALOMY
Procedure, shortened: as §5

[5] = test system: Echinochloa crus-galli (ECHCG); test: as above; settings: Echinochloa crus-galli, 312 h, 13 days after application, read-out: percentage phytotoxicity ECHCG
Procedure, shortened: as §5

[6] = test system: Amaranthus retroflexus (AMARE); test: as above; settings: Amaranthus retroflexus, 312 h, 13 days after application, read-out: percentage phytotoxicity AMARE
Procedure, shortened: as §5

Setaria faberi (SETFA) [7] = test: as above; settings: 312 h, 13 days after application, read-out: percentage phytotoxicity SETFA
Procedure, shortened: as §5

[8] = test system: Zea mays (ZEAMX, corn, maize, e.g. volunteer corn); test: as above; settings: Zea mays, 312 h, 13 days after application, read-out: percentage phytotoxicity ZEAMX
Procedure, shortened: as §5

SMILES	pest or weed control at 250 g/ha (Avena fatua (AVEFA)) [%]	pest or weed control at 250 g/ha (Setaria faberi (SETFA) [1]) [%]	plant injury at 250 g/ha [2] [%]	pest or weed control at 30 g/ha ([3]; post-emergence, post-emergence) [%]	pest or weed control at 250 g/ha ([3]; post-emergence, post-emergence) [%]	pest or weed control at 30 g/ha ([3]; pre-emergence, pre-emergence) [%]	pest or weed control at 250 g/ha ([3]; pre-emergence, pre-emergence) [%]	pest or weed control at 30 g/ha ([4]; post-emergence) [%]	pest or weed control at 250 g/ha ([4]; post-emergence) [%]	pest or weed control at 30 g/ha ([4]; pre-emergence) [%]	pest or weed control at 250 g/ha ([4]; pre-emergence) [%]	pest or weed control at 30 g/ha ([5]; post-emergence, post-emergence) [%]	pest or weed control at 250 g/ha ([5]; post-emergence, post-emergence) [%]	pest or weed control at 30 g/ha ([5]; pre-emergence, pre-emergence) [%]	pest or weed control at 250 g/ha ([5]; pre-emergence, pre-emergence) [%]	pest or weed control at 30 g/ha ([6]; post-emergence, post-emergence) [%]	pest or weed control at 250 g/ha ([6]; post-emergence, post-emergence) [%]	pest or weed control at 30 g/ha ([6]; pre-emergence, pre-emergence) [%]	pest or weed control at 250 g/ha ([6]; pre-emergence, pre-emergence) [%]	pest or weed control at 30 g/ha (Setaria faberi (SETFA) [7]; post-emergence, post-emergence) [%]	also measured
CC#Cc1cc(F)c(C2C(=O)C3CCC(C)(C2=O)C3(C)C)c(OC)c1 (stereo not drawn) [Compound A2]	0	80	0	0	0	60	60	80	90	70	90	100	100	90	100	0	0	10	40	90	pest or weed control at 250 g/ha (Setaria faberi (SETFA) [7]; post-emergence, post-emergence): 90%; pest or weed control at 30 g/ha (Setaria faberi (SETFA) [7]; pre-emergence, pre-emergence): 70%; pest or weed control at 250 g/ha (Setaria faberi (SETFA) [7]; pre-emergence, pre-emergence): 100%; pest or weed control at 30 g/ha ([8]; post-emergence, post-emergence): 100%; pest or weed control at 250 g/ha ([8]; post-emergence, post-emergence): 100%; pest or weed control at 30 g/ha ([8]; pre-emergence, pre-emergence): 60%; pest or weed control at 250 g/ha ([8]; pre-emergence, pre-emergence): 100%
CC#Cc1cc(F)c(C2C(=O)C3CCC(C3)C2=O)c(OC(F)F)c1 (stereo not drawn) [Compound A7]	40	90	70	0	70	20	30	60	90	60	100	90	100	60	100	50	60	40	70	70	pest or weed control at 30 g/ha (Avena fatua (AVEFA); 30 g/ha): 10%; pest or weed control at 125 g/ha (Avena fatua (AVEFA); 125 g/ha): 30%; pest or weed control at 30 g/ha (Setaria faberi (SETFA) [1]; 30 g/ha): 60%; pest or weed control at 125 g/ha (Setaria faberi (SETFA) [1]; 125 g/ha): 90%; plant injury at 30 g/ha ([2]; 30 g/ha): 30%; plant injury at 125 g/ha ([2]; 125 g/ha): 70%; pest or weed control at 250 g/ha (Setaria faberi (SETFA) [7]; post-emergence, post-emergence): 90%; pest or weed control at 30 g/ha (Setaria faberi (SETFA) [7]; pre-emergence, pre-emergence): 50%; pest or weed control at 250 g/ha (Setaria faberi (SETFA) [7]; pre-emergence, pre-emergence): 70%; pest or weed control at 30 g/ha ([8]; post-emergence, post-emergence): 80%; pest or weed control at 250 g/ha ([8]; post-emergence, post-emergence): 100%; pest or weed control at 30 g/ha ([8]; pre-emergence, pre-emergence): 80%; pest or weed control at 250 g/ha ([8]; pre-emergence, pre-emergence): 100%
